The record followed here is PubChem BioAssay (NCI).

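Values below derive from 48-hour exposures of cells grown in 96-well plates, with endpoints linearly interpolated between the two concentrations bracketing the appropriate inhibition level. TGI: concentration producing complete growth inhibition.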

Test systems include 786-0 renal; BT-549 breast; CAKI-1 renal; CCRF-CEM leukemia; HCC-2998 colon; HCT-116 colon; HL-60(TB) leukemia; HT29 colon; NCI-H226 lung; NCI-H460 lung; OVCAR-8 ovarian; SF-295 CNS; SF-539 CNS; UO-31 renal.
Assay in all cases: NCI tumour cell line growth inhibition, 48 h

As for `C=C(Cl)C(Cl)(CBr)CCCC(C)C` (stereo not given), the TGI in the experiment with 786-0 renal was 26.4 µM; in the experiment on BT-549 breast, more than 100 µM; with CAKI-1 renal it was 12.1 µM; in the experiment on CCRF-CEM leukemia, more than 100 µM; in the experiment with HCC-2998 colon it was 34.1 µM; in the experiment with HCT-116 colon it was 24 µM. Moreover, the TGI in the experiment with HL-60(TB) leukemia was more than 55.1 µM; in the experiment with HT29 colon, 15.7 µM; in the experiment with NCI-H226 lung, more than 100 µM; in the experiment with NCI-H460 lung, 30.2 µM; in the experiment on OVCAR-8 ovarian, 47.6 µM; in the experiment on SF-295 CNS, 30 µM. The TGI in the experiment on SF-539 CNS was determined as 22.7 µM; in the experiment on UO-31 renal, 39.2 µM.

Turning to `CC(C)(CO)CNc1nc(N)nc(Cl)c1C=O`, the TGI in the experiment on 786-0 renal is more than 100 µM; with BT-549 breast, more than 100 µM; with CAKI-1 renal, 52.6 µM; in the experiment with CCRF-CEM leukemia, 83.9 µM; in the experiment with HCC-2998 colon, 21.3 µM; in the experiment on HCT-116 colon it was 40.1 µM. For the same compound, the TGI was 17.7 µM with HL-60(TB) leukemia; more than 100 µM in the experiment with HT29 colon; more than 100 µM in the experiment on NCI-H226 lung; more than 100 µM in the experiment on NCI-H460 lung; 68.1 µM with OVCAR-8 ovarian; more than 100 µM in the experiment on SF-295 CNS. Moreover, the TGI in the experiment with SF-539 CNS and in the experiment on UO-31 renal was more than 100 µM each time.

Regarding `CCOc1ccc(NC(=O)/C=C/c2ccco2)cc1`, the TGI with 786-0 renal, with BT-549 breast, in the experiment with CAKI-1 renal, in the experiment with CCRF-CEM leukemia, in the experiment on HCC-2998 colon and with HCT-116 colon was more than 100 µM each time. Moreover, the TGI with HL-60(TB) leukemia is 44.5 µM; in the experiment with HT29 colon, more than 100 µM; in the experiment with NCI-H226 lung, more than 100 µM; in the experiment with NCI-H460 lung it was more than 100 µM; with OVCAR-8 ovarian it was more than 100 µM; in the experiment on SF-295 CNS it was more than 100 µM. Besides, the TGI in the experiment on SF-539 CNS and in the experiment on UO-31 renal was more than 100 µM in each case.

For `COc1ccc(/C=C2\CC3C4CC=C5C[C@@H](N6CCCC6)CC[C@]5(C)C4CC[C@]3(C)[C@H]2O)cc1OC` (stereo not given in full), the TGI with 786-0 renal is 11.1 µM; in the experiment with BT-549 breast it was 16.5 µM; in the experiment on CAKI-1 renal, 16.7 µM; in the experiment with CCRF-CEM leukemia it was 50 µM; in the experiment with HCC-2998 colon, 11.7 µM; with HCT-116 colon, 15.8 µM. Also, the TGI in the experiment on HL-60(TB) leukemia worked out at 42.4 µM; in the experiment on HT29 colon, 15.3 µM; in the experiment on NCI-H226 lung, 20.2 µM; in the experiment with NCI-H460 lung it was 17.4 µM; in the experiment with OVCAR-8 ovarian, 23.8 µM; in the experiment on SF-295 CNS it was 11.5 µM. Further, the TGI in the experiment on SF-539 CNS was 15.1 µM; in the experiment on UO-31 renal, 18.5 µM.

With `CC1=NN(c2nc(N)nc(CCl)n2)C(C)(C)C1`, the TGI was 15.9 µM in the experiment with 786-0 renal; more than 82.5 µM in the experiment on BT-549 breast; 9.27 µM with CAKI-1 renal; more than 52.7 µM in the experiment on CCRF-CEM leukemia; 66.1 µM in the experiment with HCC-2998 colon; more than 70.1 µM in the experiment with HCT-116 colon. Moreover, the TGI in the experiment with HL-60(TB) leukemia is more than 24.9 µM; with HT29 colon, more than 92.7 µM; in the experiment with NCI-H226 lung, more than 100 µM; in the experiment with NCI-H460 lung, 36.2 µM; in the experiment on OVCAR-8 ovarian, more than 55.5 µM; in the experiment with SF-295 CNS it was more than 74.5 µM. Moreover, the TGI came out at 34 µM in the experiment with SF-539 CNS and 19.7 µM with UO-31 renal.

For the compound `COc1ccc2c(c1)C1Oc3ccccc3CC1CO2` (stereo not given), the TGI in the experiment with 786-0 renal was more than 100 µM; with BT-549 breast, more than 100 µM; with CAKI-1 renal, more than 100 µM; in the experiment with CCRF-CEM leukemia, more than 100 µM; in the experiment on HCC-2998 colon, 42.7 µM; in the experiment with HCT-116 colon, more than 100 µM. Besides, the TGI with HL-60(TB) leukemia is 50 µM; in the experiment on HT29 colon it was more than 100 µM; in the experiment with NCI-H226 lung, more than 100 µM; in the experiment with NCI-H460 lung it was more than 100 µM; in the experiment on OVCAR-8 ovarian, more than 100 µM; in the experiment with SF-295 CNS, more than 100 µM. Further, the TGI in the experiment with SF-539 CNS is more than 100 µM; with UO-31 renal, 75.8 µM.

As to `CC1(C)C2CCC1(C)C(NC(=O)COCCOCC(N)=O)C2` (stereo not given), the TGI in the experiment with 786-0 renal, in the experiment with BT-549 breast, in the experiment with CAKI-1 renal, in the experiment on CCRF-CEM leukemia, with HCC-2998 colon and with HCT-116 colon was more than 100 µM in each case. Also, the TGI with HL-60(TB) leukemia, in the experiment with HT29 colon, in the experiment on NCI-H226 lung, in the experiment with NCI-H460 lung, in the experiment with OVCAR-8 ovarian and in the experiment with SF-295 CNS was more than 100 µM throughout. In addition, the TGI in the experiment on SF-539 CNS and with UO-31 renal was more than 100 µM each time.

Regarding `N#Cc1ccccc1NC(=O)C(O)C(O)C(O)C(O)C=O` (stereo not given), the TGI in the experiment with 786-0 renal, in the experiment on BT-549 breast, in the experiment with CAKI-1 renal, with CCRF-CEM leukemia, in the experiment on HCC-2998 colon and with HCT-116 colon was more than 100 µM each time. Further, the TGI in the experiment on HL-60(TB) leukemia, in the experiment with HT29 colon, in the experiment on NCI-H226 lung, in the experiment on NCI-H460 lung, in the experiment on OVCAR-8 ovarian and with SF-295 CNS was more than 100 µM in each case. In addition, the TGI with SF-539 CNS and in the experiment on UO-31 renal was more than 100 µM each time.

Turning to `CCSc1c2cc(OC)ccc2nc2ccc(OC)cc12`, the TGI in the experiment on 786-0 renal was more than 61 µM; in the experiment on BT-549 breast, more than 100 µM; with CAKI-1 renal it was 45.4 µM; in the experiment on CCRF-CEM leukemia it was more than 42.9 µM; in the experiment on HCC-2998 colon, 25.5 µM; with HCT-116 colon it was more than 47.8 µM. Besides, the TGI was more than 100 µM in the experiment with HL-60(TB) leukemia; 98 µM with HT29 colon; 40.1 µM with NCI-H226 lung; 60.4 µM with NCI-H460 lung; more than 59.2 µM with OVCAR-8 ovarian; 60.4 µM in the experiment on SF-295 CNS. Further, the TGI in the experiment on SF-539 CNS was more than 100 µM; in the experiment on UO-31 renal, more than 60.7 µM.

As to `NC(N)=NS(=O)(=O)c1ccc(NCc2cccc3c(=O)c4ccc(Cl)cc4oc23)cc1`, the TGI with 786-0 renal is more than 12.9 µM; with BT-549 breast, more than 14.4 µM; in the experiment with CAKI-1 renal, more than 15 µM; with CCRF-CEM leukemia, more than 7.9 µM; with HCC-2998 colon, more than 25 µM; in the experiment on HCT-116 colon it was more than 22.4 µM. The TGI was 5.94 µM with HL-60(TB) leukemia; more than 14.6 µM in the experiment on HT29 colon; more than 25 µM in the experiment with NCI-H226 lung; 7.3 µM with NCI-H460 lung; more than 13.7 µM in the experiment on OVCAR-8 ovarian; more than 14.9 µM in the experiment with SF-295 CNS. For the same compound, the TGI is more than 13.1 µM with SF-539 CNS and more than 12.1 µM with UO-31 renal.
